Experimental data reported in patent US7695930B2, “Method for the detection, identification and/or quantification of microoganisms with peptidase activity using phenoxazinone derivatives as enzyme substrates” (Biomerieux, priority 2003, dated 2010).
Where two headings read alike, the source gives them in different places.

How the values were obtained:
Conditions in all cases: 60 mg/l
[1] = system: Escherichia coli (NCTC 10418)
Description: (§1) 300 ml of Columbia medium were melted in a waterbath at 100° C. and autoclaved at 121° C. for 15 min. The product was then cooled to 50° C. in a waterbath.
(§2) This medium was separated into 3 flasks of 100 ml, and then, added at 50° C., as substrates, were those of Examples 4 and 6 for which the amino acid is β-alanine (respectively, β-alanine-9-amino-6-carbethoxybenzo[a]phenoxazin-5-one or β-Ala-ACAP and β-alanine-9-amino-6-chlorobenzo[a]phenoxazin-5-one or β-Ala-ACHP), solubilized in DMSO, according to the concentrations indicated in Table 5 below:
(§3) The medium was then poured into Petri dishes.
(§4) Nine microorganism strains derived from the Applicant's collection, suspended in physiological saline, were seeded onto the media prepared in point 14.1 above according to a multipoint inoculation in a proportion of 100 000 cfu/spot. The dishes were incubated at 37° C. for 48 hours. The colonies formed (one colony per strain) were examined visually after incubation for 24 and 48 hours.
(§5) The results are expressed in Table 6 hereinafter according to the rules and the nomenclature stated in paragraph 11.3 and where RP signifies pale pink.

Burkholderia cepacia 2 = system: Burkholderia cepacia 2
Description: as §1, §2, §3, §4, §5

[2] = system: Enterobacter cloacae (NCTC 11936)
Description: as §1, §2, §3, §4, §5

Pseudomonas aeruginosa 2 = system: Pseudomonas aeruginosa 2
Description: as §1, §2, §3, §4, §5

Burkholderia cepacia 1 = system: Burkholderia cepacia 1
Description: as §1, §2, §3, §4, §5

Candida albicans (NCTC) = system: Candida albicans (NCTC)
Description: as §1, §2, §3, §4, §5

Pseudomonas aeruginosa 1 = system: Pseudomonas aeruginosa 1
Description: as §1, §2, §3, §4, §5

Pseudomonas aeruginosa 3 = system: Pseudomonas aeruginosa 3
Description: as §1, §2, §3, §4, §5

[3] = system: Enteroccus faecalis (NCTC 775)
Description: as §1, §2, §3, §4, §5

Row | Substance | growth diameter ([1]; 24 h) | growth diameter ([1]; 48 h) | growth diameter (Burkholderia cepacia 2; 24 h) | growth diameter (Burkholderia cepacia 2; 48 h) | growth diameter ([2]; 24 h) | growth diameter ([2]; 48 h) | color of the colony (Pseudomonas aeruginosa 2; 24 h) | growth diameter (Pseudomonas aeruginosa 2; 24 h) | intensity of coloration, scale 0 to 4 (Pseudomonas aeruginosa 2; 24 h) | growth diameter (Pseudomonas aeruginosa 2; 48 h) | intensity of coloration, scale 0 to 4 (Pseudomonas aeruginosa 2; 48 h) | growth diameter (Burkholderia cepacia 1; 24 h) | growth diameter (Burkholderia cepacia 1; 48 h) | growth diameter (Candida albicans (NCTC); 24 h) | growth diameter (Candida albicans (NCTC); 48 h) | color of the colony (Pseudomonas aeruginosa 1; 24 h) | growth diameter (Pseudomonas aeruginosa 1; 24 h) | intensity of coloration, scale 0 to 4 (Pseudomonas aeruginosa 1; 24 h) | growth diameter (Pseudomonas aeruginosa 1; 48 h) | intensity of coloration, scale 0 to 4 (Pseudomonas aeruginosa 1; 48 h) | further results
1 | β-alanine-9-amino-6-carbethoxybenzo[a]phenoxazin-5-one [β-Ala-ACAP] | 2 mm | 3 mm | 2 mm | 2 mm | 3 mm | 3 mm | R | 3 mm | 2 | 3 mm | 2 | 2 mm | 2 mm | 2 mm | 2 mm | R | 3 mm | 1 | 3 mm | 3 | color of the colony (Pseudomonas aeruginosa 2; 48 h): R; color of the colony (Pseudomonas aeruginosa 1; 48 h): R; color of the colony (Pseudomonas aeruginosa 3; 24 h): R; growth diameter (Pseudomonas aeruginosa 3; 24 h): 1 mm; intensity of coloration, scale 0 to 4 (Pseudomonas aeruginosa 3; 24 h): 2; color of the colony (Pseudomonas aeruginosa 3; 48 h): R; growth diameter (Pseudomonas aeruginosa 3; 48 h): 2 mm; intensity of coloration, scale 0 to 4 (Pseudomonas aeruginosa 3; 48 h): 3; growth diameter ([3]; 24 h): 2 mm; growth diameter ([3]; 48 h): 2 mm
2 | β-alanine-9-amino-6-chlorobenzo[a]phenoxazin-5-one [β-Ala-ACHP] | 2 mm | 3 mm | 2 mm | 2 mm | 2 mm | 3 mm | R | 2 mm | 2 | 3 mm | 2 | 2 mm | 2 mm | 2 mm | 2 mm | R | 3 mm | 2 | 3 mm | 2 | color of the colony (Pseudomonas aeruginosa 3; 24 h): R; growth diameter (Pseudomonas aeruginosa 3; 24 h): 1 mm; intensity of coloration, scale 0 to 4 (Pseudomonas aeruginosa 3; 24 h): 2; growth diameter (Pseudomonas aeruginosa 3; 48 h): 2 mm; intensity of coloration, scale 0 to 4 (Pseudomonas aeruginosa 3; 48 h): 2; growth diameter ([3]; 24 h): 1 mm; growth diameter ([3]; 48 h): 1 mm
